Assay results from patent US4780464A, “(1,2,4)triazolo(4,3-a)quinoxaline-4-amines” (Warner-Lambert Company, priority 1986, dated 1988).

Tests used:
adenosine A1 receptor = molecular target: T1, adenosine A1 receptor (Rattus norvegicus, UniProt P25099); assay: Adenosine Receptor Binding--A1 Receptor Affinity (RBA1), [3H]-CHA, rat whole brain minus cerebellum and brainstem membranes; design: species or system rat (male Long-Evans); settings: 1.0 nM [3H]-CHA, pH 7.7, 25° C., one hour, read-out: RBA-1 (IC50, adenosine A1 receptor affinity)
T1 construct: Whole brain minus cerebellum and brainstem from male Long-Evans rats (150-200 g) is homogenized; from tissue; host or cells: rat whole brain minus cerebellum and brainstem, membranes
T1 sequence (P25099 1-326): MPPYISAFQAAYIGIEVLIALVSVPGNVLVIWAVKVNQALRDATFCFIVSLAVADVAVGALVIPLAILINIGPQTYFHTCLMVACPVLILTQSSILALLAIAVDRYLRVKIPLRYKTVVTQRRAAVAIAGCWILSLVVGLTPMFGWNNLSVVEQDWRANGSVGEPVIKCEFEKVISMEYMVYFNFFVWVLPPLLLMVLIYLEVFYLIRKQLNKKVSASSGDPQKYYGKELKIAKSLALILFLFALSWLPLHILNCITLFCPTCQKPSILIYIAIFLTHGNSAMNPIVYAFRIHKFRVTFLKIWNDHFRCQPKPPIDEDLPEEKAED
Method: Whole brain minus cerebellum and brainstem from male Long-Evans rats (150-200 g) is homogenized in 30 volumes of ice-cold 0.05 M Tris-HCl buffer pH 7.7 using a Brinkman Polytron PT-10, (setting number 6 for 20 seconds) and centrifuged for ten minutes at 20,000×g (Sorvall RC-2), 4° C. The supernatant is discarded, and the pellet is resuspended and centrifuged as before. The pellet is resuspended in 20 ml Tris-HCl buffer containing two International Units/ml of adenosine deaminase (Sigma type III from calf intestinal mucosa), incubated at 37° C. for 30 minutes, then subsequently at 0° C. for ten minutes. The homogenate is again centrifuged, and the final pellet is resuspended in ice-cold 0.05 M Tris-HCl buffer pH 7.7 to a concentration of 20 mg/ml original wet tissue weight and used immediately. […] Incubation volume was 2 ml. […] The filters are rinsed three times with 5 ml of ice-cold 0.05 M Tris-HCl buffer pH 7.7. The radio-labeled ligand retained on the filter is measured by liquid scintillation spectrophotometry after shaking the filters for one hour or longer on a mechanical shaker in 10 ml of Beckman Ready-Solv HP scintillation cocktail. Nonspecific binding is defined as the binding which occurs in the presence of 1 mM theophylline. […] The Scatchard plot is calculated by linear regression of the line obtained by plotting the amount of radioligand bound (pmoles/gram of tissue) versus [formula] Since the amount of radioligand bound is a small fraction of the total amount added, free radioligand is defined as the concentration of (nM) of radioligand added to the incubation mixture. The Hill coefficient is calculated by linear regression of the line obtained by plotting the log of the bound radioligand vs the log of the [formula] The maximal number of binding sites (Bmax) is calculated from the Scatchard plot.

adenosine A2 receptor = molecular target: T2, adenosine A2 receptor (Rattus norvegicus, UniProt P30543); assay: Adenosine Receptor Binding--A2 Receptor Affinity (RBA2), [3H]NECA, rat striatal membranes; design: species or system rat (Sprague-Dawley; Long-Evans hooded); settings: 4 nM [3H]NECA, 50 nM N6-cyclopentyladenosine, 25° C., 60 min, read-out: RBA-2 (IC50, adenosine A2 receptor affinity)
T2 construct: Brains are thawed and then kept on ice while the striata are dissected out; tissue Pel-Freez (Rogers, Arkansas); host or cells: rat striatum, membranes
T2 sequence (P30543 whole entry): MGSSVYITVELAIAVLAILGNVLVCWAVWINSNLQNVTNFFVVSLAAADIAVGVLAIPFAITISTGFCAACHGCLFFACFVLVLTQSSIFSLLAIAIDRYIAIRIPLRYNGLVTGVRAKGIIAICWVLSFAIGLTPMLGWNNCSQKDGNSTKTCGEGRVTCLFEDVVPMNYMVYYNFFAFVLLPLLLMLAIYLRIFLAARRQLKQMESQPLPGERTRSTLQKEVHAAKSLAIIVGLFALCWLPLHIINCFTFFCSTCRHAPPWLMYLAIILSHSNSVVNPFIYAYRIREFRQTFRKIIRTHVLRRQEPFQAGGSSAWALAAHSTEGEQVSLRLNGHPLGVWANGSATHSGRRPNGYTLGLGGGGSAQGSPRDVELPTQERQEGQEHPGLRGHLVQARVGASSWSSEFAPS
Method: Brains from 200-500 g mixed sex Sprague-Dawley rats are purchased from Pel-Freez (Rogers, Arkansas). Fresh brains from male Long-Evans hooded rats (Blue Spruce Farms, Altamont, NY) give essentially identical results. Brains are thawed and then kept on ice while the striata are dissected out. Striata are disrupted in 10 vol of ice-cold 50 mM Tris.HCl (pH 7.7 at 25° C., pH 8.26 at 5° C.) (Tris) for 30 seconds in a Polytron PT-10 (Brinkman) at setting 5. The suspension is centrifuged at 50,000 xg for ten minutes, the supernatant discarded, the pellet resuspended in 10 vol ice-cold Tris as above, recentrifuged, resuspended at 1 g/5 ml, and stored in plastic vials at -70° C. (stable for at least six months). When needed, tissue is thawed at room temperature, disrupted in a Polytron, and kept on ice until used.
All incubations are for 60 minutes at 25° C. in 12×75 mm glass tubes containing 1 ml Tris with 5 mg original tissue weight of rat weight of rat striatal membranes, 4 nM [^3 H]-N-ethyl adenosine-5'-carboxamide ([^3 H]NECA), 50 nM N6-cyclopentyladenosine (to eliminate A1 receptor binding), 10 mM MgCl2, 0.1 units/ml of adenosine deaminase and 1% dimethylsulfoxide. N6-Cyclopentyladenosine is dissolved at 10 mM in 0.02 N HCl and diluted in Tris. Stock solutions and dilutions of N6-cyclopentyladenosine can be stored at -20° C. for several months. Test compounds are dissolved at 10 mM in dimethylsulfoxide on the same day as the experiment, and diluted in dimethylsulfoxide to 100× the final incubation concentration. […] [^3 H]NECA is diluted to 40 nM in Tris. The membrane suspension (5 mg/0.79 ml) contained sufficient MgCl2 and adenosine deaminase to give 10 mM and 0.1 units/ml, respectively, final concentration in the incubation. […] After all additions, the rack of tubes is vortexed, and the tubes are then incubated for 60 min at 25° C. in a shaking water bath. The rack of tubes is vortexed an additional time halfway through the incubation.
Incubations are terminated by filtration through 2.4 cm GF/B filters under reduced pressure. Each tube is filtered as follows: the contents of the tube are poured on the filter, 4 ml of ice-cold Tris are added to the tube and the contents poured onto the filter, and the filter is washed twice with 4 ml of ice-cold Tris. The filtration is complete in about twelve seconds. Filters are put in scintillation vials, 8 ml of Formula 947 scintillation fluid added, and the vials left overnight, shaken, and counted in a liquid scintillation counter at 40% efficiency.
Nonspecific binding is defined as binding in the presence of 100 μM N6-cyclopentyladenosine, and specific binding is defined as total binding minus nonspecific binding. The IC50 is calculated by weighted nonlinear least squares curve-fitting to the mass-action equation. [formula] where
Weighting factors are calculated under the assumption that the standard deviation was proportional to the predicted value of Y. Nonspecific binding is treated as a very large (infinite) concentration of drug in the computer analysis.

Row | Compound | IC50 (adenosine A1 receptor) | IC50 (adenosine A2 receptor)
1 | CCc1nnc2c(NC3CC3)nc3ccccc3n12 [Example 6, N-Cyclopropyl-1-ethyl[1,2,4]triazolo[4,3-a]quinoxalin-4-amine] | 0.487 µM | 6.63 µM
2 | c1ccc2c(c1)nc(NC1CCCC1)c1nncn12 [Example 1, N-Cyclopentyl[1,2,4]triazolo[4,3-a]quinoxalin-4-amine] | 0.331 µM | 7.77 µM
3 | CCc1nnc2c(NC[C@H](C)O)nc3ccccc3n12 [Example 10, (S)-1-[(1-ethyl[1,2,4]triazolo[4,3-a]quinoxalin-4-yl)amino]-2-propanol] | 0.554 µM | 40.7 µM
4 | CCc1nnc2c(N[C@@H]3C[C@H]4CC[C@@H]3C4)nc3ccccc3n12 (relative stereo) [Example 9, Exo-N-bicyclo[2.2.1]hept-2-yl-1-ethyl[1,2,4]triazolo [4,3-a]quinoxalin-4-amine] | 0.074 µM | 8.69 µM
5 | CCc1nnc2c(Nc3ccccc3)nc3ccccc3n12 [Example 11, 1-Ethyl-N-phenyl[1,2,4]triazolo[4,3-a]quinoxalin-4-amine] | 0.982 µM | 20 µM
6 | FC(F)(F)c1nnc2c(NC3CCCC3)nc3ccccc3n12 [Example 13, N-Cyclopentyl-1-(trifluoromethyl)[1,2,4]triazolo [4,3-a]quinoxalin-4-amine] | 0.0125 µM | 2.08 µM

Continued, values first:

Row | IC50 (adenosine A1 receptor) | IC50 (adenosine A2 receptor) | Compound
7 | 0.101 µM | > 100 µM | CCCCc1nnc2c(NC3CCCC3)nc3ccccc3n12 [Example 5, 1-Butyl-N-cyclopentyl[1,2,4]triazolo[4,3-a]quinoxalin-4-amine]
8 | 0.071 µM | 6.13 µM | Cc1nnc2c(NC3CCCC3)nc3ccccc3n12 [Example 2, N-cyclopentyl-1-methyl[1,2,4]triazolo[4,3-a]quinoxalin-4-amine]
9 | 0.146 µM | 5.88 µM | CCc1nnc2c(NC3CCCCC3)nc3ccccc3n12 [Example 8, N-Cyclohexyl-1-ethyl[1,2,4]triazolo[4,3-a]quinoxalin-4-amine]
10 | 0.068 µM | 5.08 µM | CCCc1nnc2c(NC3CCCC3)nc3ccccc3n12 [Example 4, N-Cyclopentyl-1-propyl[1,2,4]triazolo[4,3-a]quinoxalin-4-amine]
11 | 0.0497 µM | 2.51 µM | CCc1nnc2c(NC3CCCC3)nc3ccccc3n12 [Example 3, N-Cyclopentyl-1-ethyl[1,2,4]triazolo[4,3-a]quinoxalin-4-amine]
12 | 0.109 µM | 2.32 µM | CCc1nnc2c(NC3CCC3)nc3ccccc3n12 [Example 7, N-Cyclobutyl-1-ethyl[1,2,4]triazolo[4,3-a]quinoxalin-4-amine]
